Assay results from BindingDB's records for doi:10.1021/jm501892g (Ensemble Therapeutics, 2015).

Legend:
[1] = target: Baculoviral IAP repeat-containing protein 2 (cIAP1, BIRC2, Homo sapiens) (UniProt Q13490); assay: Inhibition of cIAP1 BIR3 (154 to 352 residues) (unknown origin) by fluoresceinated dimeric SMAC peptide based fluorescence polarization assay
[2] = target: E3 ubiquitin-protein ligase XIAP (BIRC4, Homo sapiens) (UniProt P98170); assay: Inhibition of XIAP BIR2-3 (125 to 356 residues) C202A/C213G mutant (unknown origin) fluoresceinated dimeric SMAC peptide based fluorescence polarization assay
Chain of E3 ubiquitin-protein ligase XIAP (BIRC4, Homo sapiens) (P98170 whole entry, looked up, the tested form may be a part): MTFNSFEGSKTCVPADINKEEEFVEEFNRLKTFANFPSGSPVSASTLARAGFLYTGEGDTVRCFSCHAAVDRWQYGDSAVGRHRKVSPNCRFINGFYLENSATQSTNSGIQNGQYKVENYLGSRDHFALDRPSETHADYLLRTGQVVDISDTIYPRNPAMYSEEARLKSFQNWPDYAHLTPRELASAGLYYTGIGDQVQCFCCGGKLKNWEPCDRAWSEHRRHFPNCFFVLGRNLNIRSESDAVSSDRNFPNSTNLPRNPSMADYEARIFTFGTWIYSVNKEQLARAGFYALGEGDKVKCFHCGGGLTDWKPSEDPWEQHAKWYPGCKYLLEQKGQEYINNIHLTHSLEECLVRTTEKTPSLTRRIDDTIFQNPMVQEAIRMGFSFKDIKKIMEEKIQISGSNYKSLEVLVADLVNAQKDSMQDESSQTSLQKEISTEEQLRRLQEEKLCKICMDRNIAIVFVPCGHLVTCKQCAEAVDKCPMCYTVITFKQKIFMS

Chain of Baculoviral IAP repeat-containing protein 2 (cIAP1, BIRC2, Homo sapiens) (Q13490 whole entry, looked up, the tested form may be a part): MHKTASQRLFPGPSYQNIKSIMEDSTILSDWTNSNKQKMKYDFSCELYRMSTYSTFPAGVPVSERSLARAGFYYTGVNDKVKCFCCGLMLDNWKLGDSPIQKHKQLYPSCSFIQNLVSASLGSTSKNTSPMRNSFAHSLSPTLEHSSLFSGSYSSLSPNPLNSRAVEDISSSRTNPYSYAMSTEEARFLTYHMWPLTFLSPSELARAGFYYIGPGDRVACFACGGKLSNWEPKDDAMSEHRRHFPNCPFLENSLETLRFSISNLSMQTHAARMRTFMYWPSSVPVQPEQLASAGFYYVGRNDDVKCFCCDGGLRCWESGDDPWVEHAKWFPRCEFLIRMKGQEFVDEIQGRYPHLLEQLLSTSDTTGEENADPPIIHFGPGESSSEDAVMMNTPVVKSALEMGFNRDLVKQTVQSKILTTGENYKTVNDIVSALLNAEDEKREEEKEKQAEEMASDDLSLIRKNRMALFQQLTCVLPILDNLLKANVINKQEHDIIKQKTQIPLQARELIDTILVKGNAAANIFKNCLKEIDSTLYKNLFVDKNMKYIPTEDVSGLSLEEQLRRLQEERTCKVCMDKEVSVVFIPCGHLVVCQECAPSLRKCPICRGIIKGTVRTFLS

| IC50 [1] | IC50 [2] | EC50 [1] | Structure (SMILES) |
| --- | --- | --- | --- |
| 17 nM |  |  | CN[C@@H](C)C(=O)N[C@H](C(=O)N1C[C@@H]2C[C@H]1C(=O)N[C@@H](Cc1ccc3ccccc3c1)C(=O)N[C@H](C(=O)O)Cc1ccc(cc1)OCc1cn(nn1)[C@H]1C[C@@H](C(=O)N[C@@H](Cc3ccc4ccccc4c3)C(=O)N[C@H](C(=O)O)Cc3ccc(cc3)OCc3cn2nn3)N(C(=O)[C@@H](NC(=O)[C@H](C)NC)C(C)C)C1)C(C)C |
| 17 nM |  |  | CN[C@@H](C)C(=O)N[C@H](C(=O)N1C[C@@H]2C[C@H]1C(=O)N[C@@H](Cc1cccc3ccccc13)C(=O)N[C@H](C(=O)O)Cc1ccc(cc1)OCc1cn(nn1)[C@H]1C[C@@H](C(=O)N[C@@H](Cc3cccc4ccccc34)C(=O)N[C@H](C(=O)O)Cc3ccc(cc3)OCc3cn2nn3)N(C(=O)[C@@H](NC(=O)[C@H](C)NC)C(C)C)C1)C(C)C |
| 11 nM |  |  | CN[C@@H](C)C(=O)N[C@H](C(=O)N1C[C@@H]2C[C@H]1C(=O)N[C@@H](Cc1ccccc1)C(=O)N[C@H](C(=O)O)Cc1ccc(cc1)OCc1cn(nn1)[C@H]1C[C@@H](C(=O)N[C@@H](Cc3ccccc3)C(=O)N[C@H](C(=O)O)Cc3ccc(cc3)OCc3cn2nn3)N(C(=O)[C@@H](NC(=O)[C@H](C)NC)C(C)C)C1)C(C)C |
| 8 nM |  |  | CN[C@@H](C)C(=O)N[C@H](C(=O)N1C[C@@H]2C[C@H]1C(=O)N[C@@H](Cc1ccccc1)C(=O)N[C@H](C(=O)O)Cc1ccc(cc1)NC(=O)CCc1cn(nn1)[C@H]1C[C@@H](C(=O)N[C@@H](Cc3ccccc3)C(=O)N[C@H](C(=O)O)Cc3ccc(cc3)NC(=O)CCc3cn2nn3)N(C(=O)[C@@H](NC(=O)[C@H](C)NC)C(C)C)C1)C(C)C |
| 10 nM | 9 nM |  | CN[C@@H](C)C(=O)N[C@H](C(=O)N1C[C@@H]2C[C@H]1C(=O)N[C@@H](Cc1ccc3ccccc3c1)C(=O)N[C@H](C(=O)O)Cc1cn(nn1)[C@H]1C[C@@H](C(=O)N[C@@H](Cc3ccc4ccccc4c3)C(=O)N[C@H](C(=O)O)Cc3cn2nn3)N(C(=O)[C@@H](NC(=O)[C@H](C)NC)C(C)C)C1)C(C)C |
|  |  | 36 nM | CN[C@@H](C)C(=O)N[C@H](C(=O)N1C[C@@H]2C[C@H]1C(=O)N[C@@H](Cc1ccccc1)C(=O)N[C@H](C(=O)O)Cc1ccc(cc1)NC(=O)CCc1cn2nn1)C(C)C |
|  |  | 20 nM | CN[C@@H](C)C(=O)N[C@H](C(=O)N1C[C@@H]2C[C@H]1C(=O)N[C@@H](Cc1ccccc1)C(=O)N[C@H](C(=O)O)Cc1ccc(cc1)OCc1cn2nn1)C(C)C |
